Measurements published in ChEMBL document CHEMBL1146013, “Amino substituted analogs of 1-phenyl-3-phenylimino-2-indolones with potent galanin Gal3 receptor binding affinity and improved solubility” (Bioorg Med Chem Lett, 2006).
In brackets after ≈: the same amount, converted by molar mass.

Legend:
[1] = Aqueous solubility at pH 7.4; format: physicochemical
Galanin receptor type 3 = target: T1, Galanin receptor type 3 (Homo sapiens, UniProt O60755); assay: Displacement of [125I]galanin from human galanin Gal3 receptor
T1 sequence (O60755 whole entry): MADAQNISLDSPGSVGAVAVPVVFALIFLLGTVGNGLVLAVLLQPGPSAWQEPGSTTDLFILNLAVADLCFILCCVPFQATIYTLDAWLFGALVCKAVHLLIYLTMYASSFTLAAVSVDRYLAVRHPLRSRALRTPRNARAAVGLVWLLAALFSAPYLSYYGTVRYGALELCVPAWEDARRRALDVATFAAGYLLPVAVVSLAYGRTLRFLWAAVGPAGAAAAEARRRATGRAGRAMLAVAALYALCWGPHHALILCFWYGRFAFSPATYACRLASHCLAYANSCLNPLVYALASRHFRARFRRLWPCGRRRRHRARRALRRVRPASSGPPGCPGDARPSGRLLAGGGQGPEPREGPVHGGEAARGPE

D(1B) dopamine receptor = D(1B) dopamine receptor (Homo sapiens, UniProt P21918); assay: Binding affinity to human dopamine D5 receptor
[2] = target: T2, Alpha-1A adrenergic receptor (Homo sapiens, UniProt P35348); assay: Binding affinity to human adrenergic alpha-1A receptor
T2 sequence (P35348 whole entry): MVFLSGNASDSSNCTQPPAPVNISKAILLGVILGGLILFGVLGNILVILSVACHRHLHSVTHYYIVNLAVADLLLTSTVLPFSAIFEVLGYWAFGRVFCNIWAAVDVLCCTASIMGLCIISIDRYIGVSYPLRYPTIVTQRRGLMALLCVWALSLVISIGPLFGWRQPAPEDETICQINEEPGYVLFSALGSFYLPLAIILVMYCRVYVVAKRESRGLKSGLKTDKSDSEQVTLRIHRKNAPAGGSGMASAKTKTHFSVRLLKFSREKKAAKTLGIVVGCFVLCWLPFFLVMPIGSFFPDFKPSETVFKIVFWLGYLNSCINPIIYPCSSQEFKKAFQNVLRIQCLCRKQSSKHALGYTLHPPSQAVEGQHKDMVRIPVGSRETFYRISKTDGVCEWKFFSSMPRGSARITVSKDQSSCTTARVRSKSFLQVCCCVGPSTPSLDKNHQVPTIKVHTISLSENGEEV

Sequence of D(1B) dopamine receptor (P21918 whole entry): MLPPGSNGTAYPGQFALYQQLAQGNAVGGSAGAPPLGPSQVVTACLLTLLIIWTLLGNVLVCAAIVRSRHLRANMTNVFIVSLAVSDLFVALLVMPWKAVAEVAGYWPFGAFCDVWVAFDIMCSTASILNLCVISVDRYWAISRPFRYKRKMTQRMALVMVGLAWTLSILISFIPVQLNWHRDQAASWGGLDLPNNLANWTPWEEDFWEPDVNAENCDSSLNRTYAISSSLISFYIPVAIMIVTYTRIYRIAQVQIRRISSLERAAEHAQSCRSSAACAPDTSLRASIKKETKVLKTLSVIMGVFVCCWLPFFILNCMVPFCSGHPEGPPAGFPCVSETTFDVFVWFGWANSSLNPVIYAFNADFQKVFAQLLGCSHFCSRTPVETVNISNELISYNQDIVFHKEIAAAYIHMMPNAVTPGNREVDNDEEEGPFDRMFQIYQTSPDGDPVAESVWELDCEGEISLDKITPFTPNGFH

solubility [1]	Ki (Galanin receptor type 3)	Ki (D(1B) dopamine receptor)	Ki [2]	SMILES
	70 nM			CCN(CC)CCCCOc1ccc(N2C(=O)/C(=N/c3cccc(C(F)(F)F)c3)c3ccccc32)cc1
	29 nM			CN(C)CCCOc1cccc(N2C(=O)/C(=N/c3cccc(C(F)(F)F)c3)c3ccccc32)c1
35 µg/mL (≈ 70.6 µM)	34 nM			CCN(CC)CCCOc1ccc(N2C(=O)/C(=N/c3cccc(C(F)(F)F)c3)c3ccccc32)cc1
	87 nM			CCN(CC)CCOc1cccc(N2C(=O)/C(=N/c3cccc(C(F)(F)F)c3)c3ccccc32)c1
5 µg/mL (≈ 9.81 µM)	45 nM			CCN(CC)CCCCOc1cccc(N2C(=O)/C(=N/c3cccc(C(F)(F)F)c3)c3ccccc32)c1
48 µg/mL (≈ 103 µM)	38 nM			CCN(CC)COc1cccc(N2C(=O)/C(=N/c3cccc(C(F)(F)F)c3)c3ccccc32)c1
44 µg/mL (≈ 88.8 µM)	21 nM	411 nM		CCN(CC)CCCOc1cccc(N2C(=O)/C(=N/c3cccc(C(F)(F)F)c3)c3ccccc32)c1
	290 nM			CCN(CC)C[C@@H](O)COc1cccc(N2C(=O)/C(=N/c3cccc(C(F)(F)F)c3)c3ccccc32)c1

Further lines, the compound ahead of its results:

SMILES	solubility [1]	Ki (Galanin receptor type 3)	Ki (D(1B) dopamine receptor)	Ki [2]
O=C1/C(=N/c2cccc(C(F)(F)F)c2)c2ccccc2N1c1ccccc1	< 1 µg/mL	17 nM		
CN(C)CCOc1ccc(N2C(=O)/C(=N/c3cccc(C(F)(F)F)c3)c3ccccc32)cc1		89 nM		
CCN(CC)C[C@H](O)COc1cccc(N2C(=O)/C(=N/c3cccc(C(F)(F)F)c3)c3ccccc32)c1	606 µg/mL (≈ 1180 µM)	27 nM		
CCN(CC)CCOc1ccccc1N1C(=O)/C(=N/c2cccc(C(F)(F)F)c2)c2ccccc21		1000 nM		
O=C1/C(=N/c2cccc(C(F)(F)F)c2)c2ccccc2N1c1cccc(OCCCN2CCCC2)c1		49 nM		
O=C1/C(=N/c2cccc(C(F)(F)F)c2)c2ccccc2N1c1ccccc1OCCN1CCCC1		790 nM		
CCN(CC)CCOc1ccc(N2C(=O)/C(=N/c3cccc(C(F)(F)F)c3)c3ccccc32)cc1		78 nM		
CN(C)CCOc1cccc(N2C(=O)/C(=N/c3cccc(C(F)(F)F)c3)c3ccccc32)c1		26 nM		
CCN(CC)CC(O)COc1cccc(N2C(=O)/C(=N/c3cccc(C(F)(F)F)c3)c3ccccc32)c1 (racemic)		15 nM		
O=C1/C(=N/c2cccc(C(F)(F)F)c2)c2ccccc2N1c1cccc(OCCN2CCCCC2)c1	7 µg/mL (≈ 14.2 µM)	8 nM		
O=C1/C(=N/c2cccc(C(F)(F)F)c2)c2ccccc2N1c1cccc(OCCN2CCCC2)c1	48 µg/mL (≈ 100 µM)	5 nM	939 nM	78 nM
